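In this assay, cells in 96-well plates receive the compound at five concentrations for 48 hours. Endpoints are linearly interpolated between the surrounding concentrations. The concentration for full growth arrest is given as TGI.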
Assays:
Assay in all cases: NCI anticancer screen, dose series, 48 h
M14 melanoma = tested on: M14 melanoma
DMS 273 small cell lung = tested on: DMS 273 small cell lung
SR leukemia = tested on: SR leukemia
HOP-62 NSCLC = tested on: HOP-62 NSCLC
OVCAR-8 ovarian = tested on: OVCAR-8 ovarian
CCRF-CEM leukemia = tested on: CCRF-CEM leukemia
SNB-19 CNS = tested on: SNB-19 CNS
HCT-116 colon = tested on: HCT-116 colon
HCT-15 colon = tested on: HCT-15 colon
K-562 leukemia = tested on: K-562 leukemia
DMS 114 small cell lung = tested on: DMS 114 small cell lung
XF 498 CNS = tested on: XF 498 CNS
SK-MEL-2 melanoma = tested on: SK-MEL-2 melanoma
OVCAR-3 ovarian = tested on: OVCAR-3 ovarian
U251 CNS = tested on: U251 CNS
786-0 renal = tested on: 786-0 renal
EKVX NSCLC = tested on: EKVX NSCLC
LXFL 529 NSCLC = tested on: LXFL 529 NSCLC
COLO 205 colon = tested on: COLO 205 colon
SK-MEL-28 melanoma = tested on: SK-MEL-28 melanoma
ACHN renal = tested on: ACHN renal
HCC-2998 colon = tested on: HCC-2998 colon
A549 NSCLC = tested on: A549 NSCLC
IGROV1 ovarian = tested on: IGROV1 ovarian
SF-539 CNS = tested on: SF-539 CNS
UACC-257 melanoma = tested on: UACC-257 melanoma
SK-MEL-5 melanoma = tested on: SK-MEL-5 melanoma
LOX IMVI melanoma = tested on: LOX IMVI melanoma
M19-MEL melanoma = tested on: M19-MEL melanoma
NCI-H460 lung = tested on: NCI-H460 lung
KM12 colon = tested on: KM12 colon
DLD-1 colon = tested on: DLD-1 colon
SK-OV-3 ovarian = tested on: SK-OV-3 ovarian
UACC-62 melanoma = tested on: UACC-62 melanoma
NCI-H226 lung = tested on: NCI-H226 lung
OVCAR-4 ovarian = tested on: OVCAR-4 ovarian
OVCAR-5 ovarian = tested on: OVCAR-5 ovarian
HT29 colon = tested on: HT29 colon
NCI-H23 lung = tested on: NCI-H23 lung
KM20L2 colon = tested on: KM20L2 colon
HOP-18 NSCLC = tested on: HOP-18 NSCLC
SW-620 colon = tested on: SW-620 colon
CAKI-1 renal = tested on: CAKI-1 renal
SF-295 CNS = tested on: SF-295 CNS
SN12C renal = tested on: SN12C renal
UO-31 renal = tested on: UO-31 renal
RPMI-8226 leukemia = tested on: RPMI-8226 leukemia
SNB-75 CNS = tested on: SNB-75 CNS
RXF 393 renal = tested on: RXF 393 renal
SNB-78 CNS = tested on: SNB-78 CNS
TK-10 renal = tested on: TK-10 renal
NCI-H522 lung = tested on: NCI-H522 lung
SF-268 CNS = tested on: SF-268 CNS
A498 renal = tested on: A498 renal
HL-60(TB) leukemia = tested on: HL-60(TB) leukemia
HOP-92 NSCLC = tested on: HOP-92 NSCLC
MALME-3M melanoma = tested on: MALME-3M melanoma
MOLT-4 leukemia = tested on: MOLT-4 leukemia

O=C(NCc1ccccc1)c1cc2ccc(O)c(O)c2cn1
TGI (M14 melanoma): 19.3 µM
TGI (DMS 273 small cell lung): 32.3 µM
TGI (SR leukemia): > 100 µM
TGI (HOP-62 NSCLC): 47.9 µM
TGI (OVCAR-8 ovarian): 23.9 µM
TGI (CCRF-CEM leukemia): > 100 µM
TGI (SNB-19 CNS): > 100 µM
TGI (HCT-116 colon): 32.1 µM
TGI (HCT-15 colon): > 100 µM
TGI (K-562 leukemia): > 100 µM
TGI (DMS 114 small cell lung): 26.8 µM
TGI (XF 498 CNS): 31.7 µM
TGI (SK-MEL-2 melanoma): 25.4 µM
TGI (OVCAR-3 ovarian): 41.6 µM
TGI (U251 CNS): 52.8 µM
TGI (786-0 renal): 33.1 µM
TGI (EKVX NSCLC): > 100 µM
TGI (LXFL 529 NSCLC): 30.6 µM
TGI (COLO 205 colon): > 100 µM
TGI (SK-MEL-28 melanoma): 30.3 µM
TGI (ACHN renal): 29.4 µM
TGI (HCC-2998 colon): > 100 µM
TGI (A549 NSCLC): > 100 µM
TGI (IGROV1 ovarian): 44.5 µM
TGI (SF-539 CNS): 32.6 µM
TGI (UACC-257 melanoma): 29.1 µM
TGI (SK-MEL-5 melanoma): 23.3 µM
TGI (LOX IMVI melanoma): 16.2 µM
TGI (M19-MEL melanoma): 3.23 µM
TGI (NCI-H460 lung): 39.1 µM
TGI (KM12 colon): > 100 µM
TGI (DLD-1 colon): 37.8 µM
TGI (SK-OV-3 ovarian): > 100 µM
TGI (UACC-62 melanoma): 33.5 µM
TGI (NCI-H226 lung): > 100 µM
TGI (OVCAR-4 ovarian): 30.3 µM
TGI (OVCAR-5 ovarian): 58.3 µM
TGI (HT29 colon): > 100 µM
TGI (NCI-H23 lung): 25.9 µM
TGI (KM20L2 colon): > 100 µM
TGI (HOP-18 NSCLC): 44.5 µM
TGI (SW-620 colon): 37.4 µM
TGI (CAKI-1 renal): 33.6 µM
TGI (SF-295 CNS): 31.5 µM
TGI (SN12C renal): 31.7 µM
TGI (UO-31 renal): 36.5 µM
TGI (RPMI-8226 leukemia): > 100 µM
TGI (SNB-75 CNS): 32.9 µM
TGI (RXF 393 renal): 30.5 µM
TGI (SNB-78 CNS): 40.6 µM
TGI (TK-10 renal): > 100 µM
TGI (NCI-H522 lung): 30.9 µM
TGI (SF-268 CNS): 29.7 µM
TGI (A498 renal): > 100 µM
TGI (HL-60(TB) leukemia): > 100 µM
TGI (HOP-92 NSCLC): 33.3 µM
TGI (MALME-3M melanoma): 30.4 µM

COC(=O)[C@@]12C(=O)CCC(=O)C1C1C(=CC2C)O[C@@H]2OC3(CCCCC3)O[C@H]12 (stereo not given in full)
TGI (M14 melanoma): > 100 µM
TGI (DMS 273 small cell lung): > 100 µM
TGI (SR leukemia): 58.8 µM
TGI (HOP-62 NSCLC): > 100 µM
TGI (OVCAR-8 ovarian): > 80.2 µM
TGI (CCRF-CEM leukemia): > 81 µM
TGI (MOLT-4 leukemia): 70.5 µM
TGI (SNB-19 CNS): > 100 µM
TGI (HCT-116 colon): > 100 µM
TGI (HCT-15 colon): > 100 µM
TGI (K-562 leukemia): > 100 µM
TGI (DMS 114 small cell lung): > 100 µM
TGI (XF 498 CNS): > 93.6 µM
TGI (SK-MEL-2 melanoma): > 100 µM
TGI (OVCAR-3 ovarian): > 100 µM
TGI (U251 CNS): > 100 µM
TGI (786-0 renal): > 100 µM
TGI (EKVX NSCLC): > 100 µM
TGI (LXFL 529 NSCLC): > 100 µM
TGI (COLO 205 colon): > 100 µM
TGI (SK-MEL-28 melanoma): > 100 µM
TGI (ACHN renal): > 100 µM
TGI (HCC-2998 colon): > 100 µM
TGI (A549 NSCLC): > 100 µM
TGI (IGROV1 ovarian): > 100 µM
TGI (SF-539 CNS): > 100 µM
TGI (UACC-257 melanoma): > 100 µM
TGI (SK-MEL-5 melanoma): > 100 µM
TGI (LOX IMVI melanoma): > 100 µM
TGI (M19-MEL melanoma): > 100 µM
TGI (NCI-H460 lung): > 100 µM
TGI (KM12 colon): > 100 µM
TGI (DLD-1 colon): > 100 µM
TGI (SK-OV-3 ovarian): > 100 µM
TGI (UACC-62 melanoma): > 100 µM
TGI (NCI-H226 lung): > 100 µM
TGI (OVCAR-4 ovarian): > 100 µM
TGI (OVCAR-5 ovarian): > 100 µM
TGI (HT29 colon): > 100 µM
TGI (NCI-H23 lung): > 100 µM
TGI (KM20L2 colon): > 100 µM
TGI (HOP-18 NSCLC): > 100 µM
TGI (SW-620 colon): > 100 µM
TGI (CAKI-1 renal): > 100 µM
TGI (SF-295 CNS): > 100 µM
TGI (SN12C renal): > 100 µM
TGI (UO-31 renal): > 100 µM
TGI (RPMI-8226 leukemia): 83.2 µM
TGI (SNB-75 CNS): > 100 µM
TGI (RXF 393 renal): > 100 µM
TGI (SNB-78 CNS): > 100 µM
TGI (TK-10 renal): > 100 µM
TGI (NCI-H522 lung): 38.1 µM
TGI (SF-268 CNS): > 100 µM
TGI (A498 renal): > 100 µM
TGI (HL-60(TB) leukemia): 59.1 µM
TGI (HOP-92 NSCLC): > 100 µM
TGI (MALME-3M melanoma): > 100 µM
